Earlier results as cited in publication PMC4360375 (Journal of Medicinal Chemistry, 2015).

System: GABA uptake, rat synaptosome
Conditions: literature data set; ref 10.1021/jm980492e; cited from earlier work
For `O=C(O)[C@@H]1CCCN(CCCOCCCN(c2ccccc2)c2ccccc2)C1` [An_1999/4_(R)-19, O(CCCN1C[C@@H](CCC1)C(O)=O)CCCN(c1ccccc1)c1ccccc1], the pIC50 is listed as 5.523.
In the case of `O=C(O)[C@@H]1CCCN(CCOCCOCCN(c2ccccc2)c2ccccc2)C1` [An_1999/4_(R)-20, O(CCN1C[C@@H](CCC1)C(O)=O)CCOCCN(c1ccccc1)c1ccccc1], the pIC50 is given as 5.046.
For `O=C(O)[C@@H]1CCCN(CCOCC=C(c2ccccc2)c2ccccc2)C1` [An_1999/4_(R)-21, O(CCN1C[C@@H](CCC1)C(O)=O)C\C=C(\c1ccccc1)/c1ccccc1], the pIC50 is listed as 6.585.
In the case of `Cc1ccccc1/C(=C/COCCN1CCC[C@@H](C(=O)O)C1)c1ccccc1` [An_1999/4_(R)-22, O(CCN1C[C@@H](CCC1)C(O)=O)C\C=C(\c1ccccc1C)/c1ccccc1], the pIC50 is listed as 6.62.
In the case of `Cc1ccccc1C(=CCOCCN1CCC[C@@H](C(=O)O)C1)c1ccccc1C` [An_1999/4_(R)-23, O(CCN1C[C@@H](CCC1)C(O)=O)C\C=C(\c1ccccc1C)/c1ccccc1C], the pIC50 is listed as 6.959.
In the case of `Cc1ccccc1C(=CCOCCCN1CCC[C@@H](C(=O)O)C1)c1ccccc1C` [An_1999/4_(R)-24, O(CCCN1C[C@@H](CCC1)C(O)=O)C\C=C(\c1ccccc1C)/c1ccccc1C], the pIC50 is given as 7.097.
In the case of `O=C(O)[C@@H]1CCCN(CCOCC=C(c2ccc(Cl)cc2)c2ccc(Cl)cc2)C1` [An_1999/4_(R)-25, Clc1ccc(cc1)\C(=C\COCCN1C[C@@H](CCC1)C(O)=O)\c1ccc(Cl)cc1], the pIC50 is given as 6.018.
For `O=C(O)[C@@H]1CCCN(CCOCC=C(c2ccc(F)cc2)c2ccc(F)cc2)C1` [An_1999/4_(R)-26, Fc1ccc(cc1)\C(=C\COCCN1C[C@@H](CCC1)C(O)=O)\c1ccc(F)cc1], the pIC50 is listed as 5.836.
For `O=C(O)[C@@H]1CCCN(CCCCC=C(c2ccccc2)c2ccccc2)C1` [An_1999/4_(R)-27, OC(=O)[C@@H]1CCCN(C1)CCCC\C=C(\c1ccccc1)/c1ccccc1], the pIC50 is listed as 5.646.
In the case of `O=C(O)[C@@H]1CCCN(CCCCCCC=C(c2ccccc2)c2ccccc2)C1` [An_1999/4_(R)-28, OC(=O)[C@@H]1CCCN(C1)CCCCCC\C=C(\c1ccccc1)/c1ccccc1], the pIC50 is given as 5.866.
For `Cc1ccccc1[C@H](CCOCCN1CCC[C@@H](C(=O)O)C1)c1ccccc1` [An_1999/4_(R)-31, O(CC[C@@H](c1ccccc1C)c1ccccc1)CCN1C[C@@H](CCC1)C(O)=O], the pIC50 is given as 7.066.
For `Cc1ccccc1C(CCOCCN1CCC[C@@H](C(=O)O)C1)c1ccccc1C` [An_1999/4_(R)-32, O(CCC(c1ccccc1C)c1ccccc1C)CCN1C[C@@H](CCC1)C(O)=O], the pIC50 is listed as 6.444.
For `O=C(O)[C@@H]1CCCN(CCOCCC(c2ccc(F)cc2)c2ccc(F)cc2)C1` [An_1999/4_(R)-33, Fc1ccc(cc1)C(CCOCCN1C[C@@H](CCC1)C(O)=O)c1ccc(F)cc1], the pIC50 is listed as 6.167.
In the case of `CN(CCC(c1ccccc1)c1ccccc1)CCN1CCC[C@@H](C(=O)O)C1` [An_1999/4_(R)-35, OC(=O)[C@@H]1CCCN(C1)CCN(CCC(c1ccccc1)c1ccccc1)C], the pIC50 is given as 5.244.

Same assay, conditions: literature data set; ref 10.1021/jm990513k; cited from earlier work
For `O=C(O)[C@@H]1CCCN(CCON=C2c3ccccc3CCc3ccccc32)C1` [An_2001/5_16, O(\N=C/1\c2c(CCc3c\1cccc3)cccc2)CCN1C[C@@H](CCC1)C(O)=O], the pIC50 is listed as 5.936.
For `O=C(O)[C@@H]1CCCN(CCON=C2c3cc(Cl)ccc3CCc3ccc(Cl)cc32)C1` [An_2001/5_17, Clc1cc\2c(CCc3c(cc(Cl)cc3)/C/2=N\OCCN2C[C@@H](CCC2)C(O)=O)cc1], the pIC50 is listed as 5.259.
In the case of `O=C(O)[C@@H]1CCCN(CCOC=C2c3ccccc3CCc3ccccc32)C1` [An_2001/5_18, O(\C=C/1\c2c(CCc3c\1cccc3)cccc2)CCN1C[C@@H](CCC1)C(O)=O], the pIC50 is given as 5.662.
For `O=C(O)[C@@H]1CCCN(CCOCCn2c3ccccc3c3ccccc32)C1` [An_2001/5_19, O(CCN1C[C@@H](CCC1)C(O)=O)CCn1c2c(c3c1cccc3)cccc2], the pIC50 is listed as 4.398.
For `O=C(O)[C@@H]1CCCN(CCOCCN2c3ccccc3Oc3ccccc32)C1` [An_2001/5_20, O1c2c(N(c3c1cccc3)CCOCCN1C[C@@H](CCC1)C(O)=O)cccc2], the pIC50 is given as 5.836.
